Test results: ChEMBL document CHEMBL1155836, “Discovery of imidazole carboxamides as potent and selective CCK1R agonists” (Bioorg Med Chem Lett, 2008)
Calls of active or inactive are those of the source. The calls are words filed in the database; no cut-off is given here.

Tests used:
[1] = target: T1, Cholecystokinin receptor type A (Homo sapiens, UniProt P32238); test: Inhibition of human CCK1 receptor
T1 sequence (P32238 whole entry): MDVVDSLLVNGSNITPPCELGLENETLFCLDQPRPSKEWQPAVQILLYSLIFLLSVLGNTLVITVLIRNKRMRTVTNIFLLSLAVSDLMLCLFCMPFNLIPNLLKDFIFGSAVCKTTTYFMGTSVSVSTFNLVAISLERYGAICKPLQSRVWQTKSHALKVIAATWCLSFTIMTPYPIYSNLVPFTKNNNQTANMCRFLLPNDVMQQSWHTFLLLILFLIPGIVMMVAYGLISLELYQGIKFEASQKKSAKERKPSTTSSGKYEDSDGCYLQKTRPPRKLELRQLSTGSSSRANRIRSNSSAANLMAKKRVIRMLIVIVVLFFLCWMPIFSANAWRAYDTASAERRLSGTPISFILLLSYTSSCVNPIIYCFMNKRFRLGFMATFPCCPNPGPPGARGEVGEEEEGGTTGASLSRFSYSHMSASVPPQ

[2] = target: T2, Gastrin/cholecystokinin type B receptor (Homo sapiens) (UniProt P32239); test: Agonist activity against human CCK2 receptor; assay type: functional
T2 sequence (whole entry): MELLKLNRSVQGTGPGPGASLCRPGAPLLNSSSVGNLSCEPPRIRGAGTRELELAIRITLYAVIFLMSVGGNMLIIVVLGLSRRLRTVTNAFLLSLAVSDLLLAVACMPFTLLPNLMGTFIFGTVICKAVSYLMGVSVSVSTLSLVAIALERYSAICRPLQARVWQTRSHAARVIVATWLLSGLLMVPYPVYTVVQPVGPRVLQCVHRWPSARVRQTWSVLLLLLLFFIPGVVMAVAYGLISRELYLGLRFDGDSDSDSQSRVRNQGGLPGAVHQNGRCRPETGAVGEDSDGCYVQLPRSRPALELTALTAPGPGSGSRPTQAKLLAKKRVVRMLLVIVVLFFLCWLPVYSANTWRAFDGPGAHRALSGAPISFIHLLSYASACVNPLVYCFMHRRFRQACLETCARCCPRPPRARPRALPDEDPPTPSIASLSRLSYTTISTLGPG

[3] = target: T1, Cholecystokinin receptor type A; test: Agonist activity against human CCK1 receptor; assay type: functional
[4] = target: T2, Gastrin/cholecystokinin type B receptor (Homo sapiens); test: Agonist activity against human CCK2 receptor assessed as receptor activation at 10000 nM; assay type: functional
[5] = target: T3, Cholecystokinin receptor type A (Homo sapiens) (UniProt P32238); test: Agonist activity against human CCK1 receptor assessed as receptor activation at 10000 nM; assay type: functional
T3 sequence (whole entry): T1 sequence (P32238 whole entry)

[6] = target: T4, Gastrin/cholecystokinin type B receptor (Homo sapiens, UniProt P32239); test: Inhibition of human CCK2 receptor
T4 sequence (P32239 whole entry): T2 sequence (whole entry)

[7] = target: T2, Gastrin/cholecystokinin type B receptor (Homo sapiens); test: Inhibition of human CCK2 receptor at 10000 nM

Compound | IC50 [1] | Activity [2] | EC50 [3] | Activity [4] | Activity [5] | IC50 [6] | inhibition [7]
Cc1ccc(-c2nc(C(=O)N3CCN(c4ccc5ccccc5c4)CC3)cn2-c2ccc3c(c2)OCCO3)cc1 | 0.42 nM | inactive | 0.99 nM | < 21% | 89% |  | 
CCc1cccc(-n2cc(C(=O)N3CCN(c4ccc5ccccc5c4)CC3)nc2-c2ccc(C)cc2)c1 | 43 nM | inactive | 65 nM | < 21% | 101% |  | 
Cc1ccc(-c2nc(C(=O)N3CCN(c4ccc5ccccc5c4)CC3)cn2-c2cccc(OC(C)C)c2)cc1 | 30 nM | inactive | 53 nM | < 21% | 94% |  | 
COc1cccc(-n2cc(C(=O)N3CCN(c4cccc(Cl)c4)CC3)nc2-c2ccc(C)cc2)c1 | 14 nM | inactive | 74 nM | < 20% | 89% |  | 
Cc1ccc(-c2nc(C(=O)N3CCN(c4ccc5ccccc5c4)CC3)cn2-c2cccc(OC(F)(F)F)c2)cc1 | 130 nM | inactive | 3150 nM | < 21% | 66% |  | 
COc1cccc(-n2cc(C(=O)N3CCN(c4ccc(Cl)c(Cl)c4)CC3)nc2-c2ccc(C)cc2)c1 | 8 nM | inactive | 25 nM | < 20% | 99% |  | 
COc1cccc(-n2cc(C(=O)N3CCN(c4ccc5ccccc5n4)CC3)nc2-c2ccc(C)cc2)c1 | 16 nM | inactive | 43 nM | < 20% | 89% |  | 
COc1ccc(-n2cc(C(=O)N3CCN(c4ccc5ccccc5c4)CC3)nc2-c2ccc(C)cc2)cc1 | 6.9 nM | inactive | 20 nM | < 21% | 110% |  | 
COc1cccc(-n2cc(C(=O)N3CCN(c4cc5ccccc5cc4C(=O)O)CC3)nc2-c2ccc(C)cc2)c1 | 1.3 nM | inactive | 0.4 nM | < 20% | 92% |  | 
COc1cccc(-n2cc(C(=O)N3CCN(c4nc5ccccc5[nH]4)CC3)nc2-c2ccc(C)cc2)c1 | 17 nM | inactive | 9.1 nM | < 20% | 89% |  | 
Cc1ccc(-c2nc(C(=O)N3CCN(c4ccc5ccccc5c4)CC3)cn2-c2cccc3c2OCCO3)cc1 | 140 nM | inactive | 471 nM | < 21% | 70% |  | 
Cc1ccc(-c2nc(C(=O)N3CCN(c4ccc5ccccc5c4)CC3)cn2-c2cccc(OCC(F)(F)F)c2)cc1 | 200 nM | inactive | 1350 nM | < 21% | 95% |  | 
COc1cccc(-n2cc(C(=O)N3CCN(c4ccc5cnccc5c4)CC3)nc2-c2ccc(C)cc2)c1 | 190 nM | inactive | 106 nM | < 20% | 86% |  | 
COc1cccc(-c2cc(C(=O)N3CCN(c4cccc(Cl)c4)CC3)nn2-c2ccc(C)cc2)c1 | 41 nM |  | 308 nM | 4.4% | 82% |  | 
COc1cccc(-n2cc(C(=O)N3CCN(c4cc(C(=O)O)c5ccccc5c4)CC3)nc2-c2ccc(C)cc2)c1 | 0.14 nM | inactive | 0.078 nM | < 20% | 85% |  | 
COc1cccc(-n2cc(C(=O)N3CCN(c4cccc5ccccc45)CC3)nc2-c2ccc(C)cc2)c1 | 630 nM | inactive | 5370 nM | < 20% | 30% |  | 
O=C(O)c1cc(N2CCN(C(=O)c3cn(-c4ccc5c(c4)OCCO5)c(-c4ccc(F)cc4)n3)CC2)cc2ccccc12 [listing 1 of 2 here] |  | inactive |  | < 36% | 97% |  | < 24%
Cc1ccc(-c2nc(C(=O)N3CCN(c4ccc5ccccc5c4)CC3)cn2-c2cccc(O)c2)cc1 | 22 nM | inactive | 82 nM | < 21% | 102% |  | 
O=C(O)c1cc(N2CCN(C(=O)c3cn(-c4ccc5c(c4)OCCO5)c(-c4ccc(F)cc4)n3)CC2)cc2ccccc12 [listing 2 of 2 here] | 0.03 nM |  | 0.093 nM |  |  | > 10000 nM | 

Now from value to compound:

IC50 [1] | Activity [2] | EC50 [3] | Activity [4] | Activity [5] | IC50 [6] | inhibition [7] | Compound
1.3 nM | inactive | 1.1 nM | < 20% | 92% |  |  | COc1cccc(-n2cc(C(=O)N3CCN(c4cnc5ccccc5c4)CC3)nc2-c2ccc(C)cc2)c1
0.57 nM | inactive | 0.53 nM | < 36% | 89% | > 10000 nM | < 24% | CCOc1cccc(-n2cc(C(=O)N3CCN(c4cnc5ccccc5c4)CC3)nc2-c2ccccc2F)c1
0.24 nM | inactive | 0.13 nM | < 36% | 86% | > 10000 nM | < 24% | CCOc1cccc(-n2cc(C(=O)N3CCN(c4cnc5ccccc5c4)CC3)nc2-c2ccc(C)cc2F)c1
2.5 nM | inactive | 9.6 nM | < 21% | 99% |  |  | COc1cccc(-n2cc(C(=O)N3CCN(c4ccc5ccccc5c4)CC3)nc2-c2ccc(C)cc2)c1
 | inactive |  | < 36% | 95% |  | < 24% | CCOc1cccc(-n2cc(C(=O)N3CCN(c4cc(C(=O)O)c5ccccc5c4)CC3)nc2-c2ccc(F)cc2)c1
3.4 nM | inactive | 7.4 nM | < 12% | 100% |  |  | CCOc1cccc(-n2cc(C(=O)N3CCN(c4ccc5ccccc5c4)CC3)nc2-c2ccccc2)c1
2.3 nM | inactive | 6.6 nM | < 12% | 93% |  |  | CCOc1cccc(-n2cc(C(=O)N3CCN(c4ccc5ccccc5c4)CC3)nc2-c2ccc(C)cc2)c1
1.9 nM | inactive | 8.4 nM | < 20% | 89% |  |  | COc1cccc(-n2cc(C(=O)N3CCN(c4cc5ccccc5cn4)CC3)nc2-c2ccc(C)cc2)c1
43 nM | inactive | 175 nM | < 12% | 83% |  |  | CCOc1cccc(-n2cc(C(=O)N3CCN(c4ccc5ccccc5c4)CC3)nc2-c2ccc(CC)cc2)c1
35 nM | inactive | 105 nM | < 12% | 106% |  |  | CCOc1cccc(-n2cc(C(=O)N3CCN(c4ccc5ccccc5c4)CC3)nc2-c2cccc(F)c2)c1
0.56 nM | inactive | 1.9 nM | < 12% | 116% |  |  | CCOc1cccc(-n2cc(C(=O)N3CCN(c4ccc5ccccc5c4)CC3)nc2-c2ccc(C)cc2F)c1
1.9 nM | inactive | 2.9 nM | < 12% | 96% |  |  | CCOc1cccc(-n2cc(C(=O)N3CCN(c4ccc5ccccc5c4)CC3)nc2-c2ccc(F)cc2)c1
1.9 nM | inactive | 6.3 nM | < 12% | 110% |  |  | CCOc1cccc(-n2cc(C(=O)N3CCN(c4ccc5ccccc5c4)CC3)nc2-c2ccccc2F)c1
1 nM | inactive | 1.1 nM | < 12% | 103% |  |  | CCOc1cccc(-n2cc(C(=O)N3CCN(c4ccc5ccccc5c4)CC3)nc2-c2ccc(F)cc2F)c1
1.9 nM | inactive | 4.4 nM | < 12% | 109% |  |  | CCOc1cccc(-n2cc(C(=O)N3CCN(c4ccc5ccccc5c4)CC3)nc2-c2c(F)cccc2F)c1
5.6 nM | inactive | 5.5 nM | < 12% | 119% |  |  | CCOc1cccc(-n2cc(C(=O)N3CCN(c4ccc5ccccc5c4)CC3)nc2-c2ccc(Cl)cc2)c1
160 nM | inactive | 962 nM | < 21% | 89% |  |  | CCCOc1cccc(-n2cc(C(=O)N3CCN(c4ccc5ccccc5c4)CC3)nc2-c2ccc(C)cc2)c1
8.6 nM | inactive | 9.3 nM | < 20% | 108% |  |  | COc1cccc(-n2cc(C(=O)N3CCN(c4ccc5ncccc5c4)CC3)nc2-c2ccc(C)cc2)c1
